Read-outs that look alike come from different tables or passages of the source. Marks after values point to notes of the source that are not given here.
How the values were obtained:
[1] = test system: PR20; experiment: DSC thermal stabilisation by inhibitor; type: binding, HIV-1; settings: for ΔTm of PR20 smaller than that of PR20^PR-123: DSC, PR20 vs PR20^PR-123
[2] = target: PR (pseudo-wild-type mature HIV-1 protease); settings: cited from earlier work
[3] = test system: PR; settings: cited from earlier work
[4] = test system: PR20; settings: darunavir; cited from earlier work
[5] = target: PR20; settings: read-out: inhibition constant Ki; cited from earlier work
[6] = test system: TFR-PR precursor; settings: cited from earlier work; for IC50: read-out: IC50 for inhibition of autoprocessing
[7] = test system: TFR-PR20 precursor; settings: read-out: IC50 for inhibition of autoprocessing; cited from earlier work

Compound | ΔTm of PR20 smaller than that of PR20^PR-123 [1] | Ki ([2]; read-out: inhibition constant Ki, darunavir, ref refs and [50]) | ΔTm (with inhibitor), DSC ([3]; darunavir) | ΔTm (with inhibitor), DSC [4] | Ki [5] | concentration that completely inhibits autoprocessing [6] | IC50 [6] | ΔTm (with inhibitor), DSC ([1]; PR20, saquinavir, 2fold molar excess of inhibitor over dimer, buffer A) | Ki ([2]; read-out: inhibition constant Ki, saquinavir) | ΔTm (with inhibitor), DSC ([3]; saquinavir) | IC50 [7]
CC(C)CN(C[C@@H](O)[C@H](Cc1ccccc1)NC(=O)O[C@H]1CO[C@H]2OCC[C@H]21)S(=O)(=O)c1ccc(N)cc1 [darunavir] | 9–11 °C | ≤ 0.01 nM | 22.4 ^c °C | 5.3 ^b °C | 41 ± 10 nM | 1 to 3 µM | 1000 to 2000 nM |  |  |  | 
CC(C)(C)NC(=O)[C@@H]1C[C@@H]2CCCC[C@@H]2CN1C[C@@H](O)[C@H](Cc1ccccc1)NC(=O)[C@H](CC(N)=O)NC(=O)c1ccc2ccccc2n1 [saquinavir] | 9–11 °C |  |  |  | 930 ± 93 nM | 1 to 3 µM | 1000 to 2000 nM | 2.9 °C | 0.28 ± 0.02 nM | 19.3 ^d °C | > 150000 nM
